Source: ChEMBL document CHEMBL4011620, “Design and Discovery of N-(2-Methyl-5'-morpholino-6'-((tetrahydro-2H-pyran-4-yl)oxy)-[3,3'-bipyridin]-5-yl)-3-(trifluoromethyl)benzamide (RAF709): A Potent, Selective, and Efficacious RAF Inhibitor Targeting RAS Mutant Cancers” (J Med Chem, 2017)
Activity calls are given as the source filed them. The calls are words filed in the database; no cut-off is given here.

Key:
Mus musculus [1] = test: In vivo inhibition of ERK1/2 phosphorylation at Thr202/Tyr204 and Thr185/Tyr187 in mouse xenografted with human Calu6 cells at 10 to 30 mg/kg, po administered as single dose measured at 24 hrs post dose; type: functional, organism-based
Mus musculus [2] = test: In vivo inhibition of ERK phosphorylation at Thr202/Tyr204 and Thr185/Tyr187 in mouse xenografted with human Calu6 cells at 10 mg/kg, po administered as single dose measured at 24 hrs post dose; type: functional, organism-based
Plasma = test: Plasma concentration in mouse xenografted with human Calu6 cells at 10 mg/kg, po administered as single dose measured at 24 hrs post dose by LC-MS analysis; type: ADME, organism-based; conditions: in vivo, BLD = below limit of detection
[3] = biological target: T1, Serine/threonine-protein kinase B-raf (Homo sapiens, UniProt P15056); test: Inhibition of full-length BRAF (unknown origin)
T1 sequence (P15056 whole entry): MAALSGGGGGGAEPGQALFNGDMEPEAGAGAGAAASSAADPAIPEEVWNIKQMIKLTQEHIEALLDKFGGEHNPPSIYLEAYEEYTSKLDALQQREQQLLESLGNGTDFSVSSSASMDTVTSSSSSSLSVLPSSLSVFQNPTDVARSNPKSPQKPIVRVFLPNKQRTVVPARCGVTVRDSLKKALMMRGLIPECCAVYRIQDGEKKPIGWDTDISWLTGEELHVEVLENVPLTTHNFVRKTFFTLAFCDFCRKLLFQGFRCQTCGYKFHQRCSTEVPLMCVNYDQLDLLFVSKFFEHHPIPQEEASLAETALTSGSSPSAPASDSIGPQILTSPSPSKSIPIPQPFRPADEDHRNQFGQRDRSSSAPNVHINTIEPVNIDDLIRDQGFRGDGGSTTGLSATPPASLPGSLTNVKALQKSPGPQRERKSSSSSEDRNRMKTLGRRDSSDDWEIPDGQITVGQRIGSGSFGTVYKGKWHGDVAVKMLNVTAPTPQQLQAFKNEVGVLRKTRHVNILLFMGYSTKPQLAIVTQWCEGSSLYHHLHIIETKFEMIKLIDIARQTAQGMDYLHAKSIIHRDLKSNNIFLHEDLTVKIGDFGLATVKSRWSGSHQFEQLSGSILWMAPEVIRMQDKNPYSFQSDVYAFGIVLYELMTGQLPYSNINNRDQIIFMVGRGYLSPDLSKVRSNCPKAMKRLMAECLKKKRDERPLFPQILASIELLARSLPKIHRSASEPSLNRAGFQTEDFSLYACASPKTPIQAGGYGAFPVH

[4] = Metabolic stability in mouse plasma after 3 hrs; type: ADME, cell-free; conditions: read-out: Stability
Mus musculus [5] = test: Time during which free plasma concentration exceeds cellular in vitro EC50 for CRAF-mediated ERK phosphorylation in mouse xenografted with human Calu6 cells at 200 mg/kg, po administered as single dose
[6] = AUC (infinity) in mouse at 3 mg/kg, po; type: ADME, organism-based; design: dose 3 mg/kg, route oral, time infinity; conditions: in vivo
Mus musculus [7] = test: Toxicity in nude mouse xenografted with human PC3 cells assessed as body weight loss at 200 mg/kg/day, po administered from day 12 until day 25 post tumor implantation measured twice per week of compound dosing; type: organism-based; conditions: in vivo
PC-3 = test: Antitumor activity against human PC3 cells xenografted in nude mouse assessed as reduction in tumor volume at 200 mg/kg/day, po dosed on day 12 continued until day 25 post implantation; type: functional, organism-based
[8] = Cmax in mouse at 3 mg/kg, po; type: ADME, organism-based; design: dose 3 mg/kg, route oral; conditions: in vivo
[9] = Cmax in rat at 10 mg/kg, po; type: ADME, organism-based; design: dose 10 mg/kg, route oral; conditions: in vivo
[10] = Protein binding in rat plasma; type: ADME, cell-free; conditions: read-out: PPB (converted)
[11] = Apparent permeability across basolateral to apical side in human Caco2 cells at pH 7.4 by LC/MS/MS analysis; conditions: Caco-2, pH 7.4
Mus musculus [12] = test: Toxicity in nude mouse xenografted with human Calu6 cells assessed as mortality at 10 to 200 mg/kg/day, po administered for 15 days starting on day 12 post tumor implantation; type: organism-based; conditions: in vivo, 360 h
[13] = biological target: T1, Serine/threonine-protein kinase B-raf; test: Binding affinity to human BRAF (429 to 741 residues) expressed in mammalian expression system at 1 uM by kinome scan assay relative to control
Calu-6 = test: Antiproliferative activity against human Calu6 cells harboring KRAS Q61K mutant assessed as reduction cell viability after 72 hrs by CellTiter-Glo assay; type: functional, cell-based; conditions: Calu-6, 72 h
[14] = Metabolic stability in dog plasma after 3 hrs; type: ADME, cell-free, Canis lupus familiaris; conditions: read-out: Stability

Cc1ncc(NC(=O)c2cccc(C(F)(F)F)c2)cc1-c1cnc(OC2CCOCC2)c(N2CCOCC2)c1
inhibition (Mus musculus [1]): inactive | inhibition (Mus musculus [2]): inactive | Cp (Plasma): Bld | IC50 [3]: 0.0004 µM | remaining at 3 h [4]: 82% | Time (Mus musculus [5]): 24 h | AUC(0-inf) [6]: 1700 nM·h | Activity (Mus musculus [7]): Non-Toxic | Activity (PC-3): inactive | Cmax [8]: 1 µM | Cmax [9]: 0.8 µM | fraction unbound [10]: 0.02 | Papp B→A [11]: 130 nm/s | Activity (Mus musculus [12]): Non-Toxic | Activity [13]: > 99% | EC50 (Calu-6): 0.95 µM | remaining at 3 h [14]: 95%
